Earlier results on one compound are cited in US20090227666A1, “Enhancing Disease Resistance In An Animal” (Hill's Pet Nutrition, Inc., priority 2007, published 2009).

The series has as its system CD8+ T cell population. To be noted: moderate (101 mg/kg of food) or high (447 mg/kg of food) versus low-normal (17 mg/kg of food).

For `CC(=O)Oc1c(C)c(C)c2c(c1C)CCC(C)(CCC[C@H](C)CCC[C@H](C)CCCC(C)C)O2` (stereo partly drawn) [α-tocopheryl acetate], the “percentages of CD8+ cells” value is listed as “increased percentages of CD8+ cells”.
